Laboratory results published in patent US4629736A, “Fatty acid derivatives and process of producing them” (Yamanouchi Pharmaceutical Co., Ltd., priority 1983, dated 1986).
Blank lines part the entries; values can stand above or below the compound they belong to.

How the values were obtained:
[1] = test system: Fibrin-clot (lysis by Urokinase); test: Fibrinolytic action (fibrin-clot lysis assay), clot lysis time relative to Urokinase alone; assay type: biochemical
Protocol: FIBRINOLYTIC ACTION (Fibrin-clot lysis assay)
Fibrinogen (1 mg/50 μl, made by Green Cross Corporation) and various amounts of the test compounds, were added to test tubes, followed to make a total volume of 850 μl with cold Tris-buffered saline (20 mM Tris-buffer, pH 7.4, containing 140 mM NaCl). To the solutions were added 100 μl of Urokinase solution (30 CTA unit/0.1 ml) and 50 μl of thrombin solution (2 NIH units/50 μl) to make final clot volume of 1 ml each in test tubes in an ice bath. The tubes were quickly shaken to mix the reagents well and immediately placed in a 37° C. water bath, and the clot lysis time was recorded. Test compounds were dissolved in physiological saline, except contrast one dissolved in physiological saline containing 10% cremophore and 0.15% ethanol. Thus, by measuring the time of clot lysis, the relative activity of the fibrinolytic action of the test compound to that of Urokinase using the system of Urokinase alone as the control was determined. The results of the pharmacological effect of the compounds of this invention are shown in Table 1 below together with that of 3-hexadecanoyloctadecanoyl-β-alanyl-L-phenylalanine having the formula [drawing 15] which is one of the compounds having the most excellent fibrinolytic action in known compounds.

Solubility in saline = assay type: physicochemical
Description: In particular, the compounds of this invention have been discovered after investigating the point of water solubility, which has never been attained in known acylpeptides. That is, the compounds of this invention have very improved water solubility, whereby sufficient pharmacological effect of the compounds can be expected and also the preparations of the compounds, such as the application to injections, and the like, can be easily performed. For example, the solubility of compound of Example 21 is more than 5 mg/ml saline.

mice = test: Acute toxicity, intravenous injection to mice; assay type: in vivo; conditions: mouse
Protocol: In addition, the acute toxicity of the compound in Example 21 was measured as follows.

[2] = at 1 × 10^-5 M, solvent physiological saline solution

SMILES: CCCCCCCCCCCCCCCC(CC(=O)N[C@@H](Cc1ccccc1)C(=O)O)OC(=O)COCCOCCOCCOCCCC (stereo partly drawn) [Example 19, N-[3-(3,6,9,12-tetraoxahexadecanoyloxy)octadecanoyl]-L-phenylalnine]
- Fibrinolytic Action, maximum relative activity (%) with the activity of Urokinase alone being defined to 100% [1, 2]: 130-140%

SMILES: CCCCCCCCCCCCCCCC(CC(=O)N[C@@H](Cc1ccccc1)C(=O)O)OC(=O)COCCOCCOCCCCCC (stereo partly drawn) [Example 20, N-[3-(3,6,9-trioxapentadecanoyloxy)octadecanoyl]-L-phenylalanine]
- Fibrinolytic Action, maximum relative activity (%) with the activity of Urokinase alone being defined to 100% [1, 2]: 130-150%

SMILES: CCCCCCCCCCCCCC(CC(=O)N[C@@H](Cc1ccccc1)C(=O)O)OC(=O)COCCOCCCCCCCCCC (stereo partly drawn) [Example 21, N-[3-(3,6-dioxahexadecanoyloxy)hexadecanoyl]-L-phenylalanine]
- solubility (Solubility in saline): more than 5 mg/ml saline
- acute toxicity (dose without death) (mice): higher than 200 mg/40 ml saline/kg
- Fibrinolytic Action, maximum relative activity (%) with the activity of Urokinase alone being defined to 100% ([1]; at 3 × 10^-6 M, solvent physiological saline solution): 150-160%

SMILES: CCCCCCCCCCCCCCCC(=O)C(CCCCCCCCCCCCCCC)CC(=O)NCCC(=O)N[C@@H](Cc1ccccc1)C(=O)O (stereo partly drawn) [Known compound, 3-hexadecanoyloctadecanoyl-β-alanyl-L-phenylalanine, reference compound]
- Fibrinolytic Action, maximum relative activity (%) with the activity of Urokinase alone being defined to 100% ([1]; at 1 × 10^-4 M, solvent Cremophore solution): 140-150%

Results, then the compound that gave them:

- Fibrinolytic Action, maximum relative activity (%) with the activity of Urokinase alone being defined to 100% [1, 2]: 150%
SMILES: CCCCCCCCCCOCCNC(=O)[C@H](CC(=O)O)NC(=O)COCCOCCCCCCCCCC [Example 14, (S)-3-(3,6-dioxahexadecanamido)-3-(3-oxatridecylcarbamoyl)propionic acid]

- Fibrinolytic Action, maximum relative activity (%) with the activity of Urokinase alone being defined to 100% ([1]; at 3 × 10^-5 M, solvent physiological saline solution): 160%
SMILES: CCCCCCCCCCCCCCCC(CC(=O)N[C@@H](CO)C(=O)O)OC(=O)COCCOCCCCCCCCCC (stereo partly drawn) [Example 22, N-[3-(3,6-dioxahexadecanoyloxy)octadecanoyl]-L-serine]
